The conditions of data set [1]: oral intake; cited from earlier work.
Data set [2] relates to acute liver failure induced by acetaminophen (APAP). Briefly: ALT assay in mouse models of APAP-induced acute liver failure. It is filed as in vivo. The following applies: 10 ug of free PEN, 1 hour before APAP. The protocol:
On the assumption that the PAOX polymers rapidly deliver drugs to the cytoplasm due to high hydrolysis rate and proton sponge effects, which leads to more rapid treatment, mouse models of acute liver failure (ALF) were used as experimental models, and pentoxifylline (PEN) was used as a drug model.
In order to investigate the cytotoxicity of PAOX-PEN particles prepared by the method as described in the above section 7, a tetrazolium-based colorimetric MTT assay was performed. Moreover, an alanine transaminase (ALT) assay, which is mainly used for evaluation of liver functions, was performed to evaluate the effect of PAOX-PEN particles in terms of the amount of drug loaded in PAOX-PEN particles and daily dosages.
6-week-old BALB/c female mice were used for the experiments and classified into each group. The PAOX-PEN particles were dispersed in 10 mg/mL (PBS), and each of 50 μL, 100 μL, and 200 μL of the resulting solution was injected into mouse tail veins. In the case of free PEN, the drug solution was administered with the calculation of dose and, only PBS was administered to the negative control groups. After 1 hour, 200 μL of APAP in a concentration of 25 mg/mL was injected intraperitoneally to induce acute liver failure. The mice were sacrificed 10 hours later, and blood was taken from the heart. […]

The subject of the next data set is RAW 264.7 cells. The data set is described as follows: Catalase delivery: PMA-induced hydrogen peroxide, DCFH-DA fluorescence by flow cytometry. It is filed as cell-based. The note with it: pretreatment 12 hours, then PMA stimulation. The procedure:
To investigate the ability of PAOX particles to deliver protein drugs, catalase was used as a model protein drug. RAW 264.7 cells (1×10^6 cells) were pretreated with catalase, catalase-loaded PAOX particles, catalase-loaded PLGA particles or empty PAOX particles for 12 hours and then stimulated with 1 μg of PMA (phorbol-12-myristate-13-acetate) to induce the production of hydrogen peroxide. PMA was used to stimulate cells for the production of reactive oxygen species including hydrogen peroxide. Then, DCFH-DA (dichlorofluorescin-diacetate) was added to each well and incubated for 30 minutes. The efficacy of PAOX particles to deliver catalase to cells was evaluated by measuring the intensity of the fluorescence produced by DCFH-DA with a flow cytometry caliber (Becton Dickinson, US).
(In general: Flow cytometry measures light scatter and fluorescence of single cells or particles in a stream.)

`OCC1CCC(CO)CC1` (stereo not drawn) [1,4-cyclohexanedimethanol]: the LD50 in data set [1] is given as 3,200 mg/kg.

Consider `CC(=O)CCCCn1c(=O)c2c(ncn2C)n(C)c1=O` [free PEN, pentoxifylline], for which the ALT reduction effect entry in data set [2] is recorded as “no ALT reduction effects”.

B1: catalase (protein, UniProt P00432 2-527, looked up)
Catalase: ADNRDPASDQMKHWKEQRAAQKPDVLTTGGGNPVGDKLNSLTVGPRGPLLVQDVVFTDEMAHFDRERIPERVVHAKGAGAFGYFEVTHDITRYSKAKVFEHIGKRTPIAVRFSTVAGESGSADTVRDPRGFAVKFYTEDGNWDLVGNNTPIFFIRDALLFPSFIHSQKRNPQTHLKDPDMVWDFWSLRPESLHQVSFLFSDRGIPDGHRHMNGYGSHTFKLVNANGEAVYCKFHYKTDQGIKNLSVEDAARLAHEDPDYGLRDLFNAIATGNYPSWTLYIQVMTFSEAEIFPFNPFDLTKVWPHGDYPLIPVGKLVLNRNPVNYFAEVEQLAFDPSNMPPGIEPSPDKMLQGRLFAYPDTHRHRLGPNYLQIPVNCPYRARVANYQRDGPMCMMDNQGGAPNYYPNSFSAPEHQPSALEHRTHFSGDVQRFNSANDDNVTQVRTFYLKVLNEEQRKRLCENIAGHLKDAQLFIQKKAVKNFSDVHPEYGSRIQALLDKYNEEKPKNAVHTYVQHGSHLSAREKANL
As to B1, the “inhibitory effect on PMA-induced fluorescence” value in the data set with RAW 264.7 cells is on record as “no inhibitory effects”.

The values are drawn from patent US8920793B2, “Biodegradable PAOX polymer particle with cationic property” (Industrial Cooperation Foundation Chonbuk National …, priority 2011, dated 2014).
